In US6403535B1, “Substituted thiazol(in) ylideneamino sulfonylamino (thio)carbonyl-triazolinones” (Bayer Aktiengesellschaft, priority 1998, dated 2002):

What was measured:
[1] = test system: Amaranthus; assay: Post-emergence test/greenhouse; type: in vivo; conditions: 504 h, after three weeks, read-out: degree of damage, Amaranthus; for pest or weed control at 125 g/ha: 125 g of a.i./ha; for pest or weed control at 60 g/ha: 60 g of a.i./ha
Protocol: (§1) To produce a suitable preparation of active compound, 1 part by weight of active compound is mixed with the stated amount of solvent, the stated amount of emulsifier is added and the concentrate is diluted with water to the desired concentration.
(§2) Test plants of a height of 5 -15 cm are sprayed with the preparation of active compound such that the particular amounts of active compound desired are applied per unit area. The concentration of the spray liquor is chosen so that the particular amounts of active compound desired are applied in 1000 l of water/ha.
(§3) After three weeks, the degree of damage to the plants is rated in % damage in comparison to the development of the untreated control.
(§4) 0%=no effect (like untreated control)

[2] = test system: Chenopodium; assay: Post-emergence test/greenhouse; type: in vivo; conditions: 504 h, after three weeks, read-out: degree of damage, Chenopodium; for pest or weed control at 125 g/ha: 125 g of a.i./ha; for pest or weed control at 60 g/ha: 60 g of a.i./ha
Protocol: as §1, §2, §3, §4

[3] = test system: Stellaria; assay: Post-emergence test/greenhouse; type: in vivo; conditions: 504 h, after three weeks, read-out: degree of damage, Stellaria; for pest or weed control at 125 g/ha: 125 g of a.i./ha; for pest or weed control at 60 g/ha: 60 g of a.i./ha
Protocol: as §1, §2, §3, §4

[4] = test system: Abutilon; assay: Post-emergence test/greenhouse; type: in vivo; conditions: 504 h, after three weeks, read-out: degree of damage, Abutilon; for pest or weed control at 125 g/ha: 125 g of a.i./ha; for pest or weed control at 60 g/ha: 60 g of a.i./ha
Protocol: as §1, §2, §3, §4

[5] = test system: Solanum; assay: Post-emergence test/greenhouse; type: in vivo; conditions: 504 h, after three weeks, read-out: degree of damage, Solanum; for pest or weed control at 125 g/ha: 125 g of a.i./ha
Protocol: as §1, §2, §3, §4

[6] = test system: weeds; assay: Post-emergence test, activity against weeds; type: in vivo
Protocol: as §1, §2, §3, §4

[7] = test system: Amaranthus; assay: Pre-emergence test/greenhouse; type: in vivo; conditions: 504 h, after three weeks, read-out: degree of damage, Amaranthus; for pest or weed control at 125 g/ha: 125 g of a.i./ha
Protocol: as §1
(§5) Seeds of the test plants are sown in normal soil. After about 24 hours, the soil is sprayed with the preparation of active compound such that the particular amount of active compound desired is applied per unit area. The concentration of the spray liquor is chosen so that the particular amount of active compound desired is applied in 1000 liters of water per hectare.
as §3, §4

[8] = test system: Matricaria; assay: Pre-emergence test/greenhouse; type: in vivo; conditions: 504 h, after three weeks, read-out: degree of damage, Matricaria; for pest or weed control at 125 g/ha: 125 g of a.i./ha
Protocol: as §1, §5, §3, §4

[9] = test system: Chenopodium; assay: Pre-emergence test/greenhouse; type: in vivo; conditions: after three weeks
Protocol: as §1, §5, §3, §4

[10] = test system: Veronica; assay: Pre-emergence test/greenhouse; type: in vivo; conditions: 504 h, after three weeks, read-out: degree of damage, Veronica; for pest or weed control at 125 g/ha: 125 g of a.i./ha
Protocol: as §1, §5, §3, §4

[11] = test system: weeds; assay: Pre-emergence test, activity against weeds; type: in vivo
Protocol: as §1, §5, §3, §4

[12] = test system: Setaria; assay: Pre-emergence test/greenhouse; type: in vivo; conditions: after three weeks
Protocol: as §1, §5, §3, §4

[13] = test system: Sugar beet; assay: Pre-emergence test/greenhouse; type: in vivo; conditions: 125 g of a.i./ha, after three weeks, 0%=no effect, 100%=total destruction
Protocol: as §1, §5, §3, §4

[14] = test system: Maize; assay: Pre-emergence test/greenhouse; type: in vivo; conditions: 125 g of a.i./ha, after three weeks, 0%=no effect, 100%=total destruction
Protocol: as §1, §5, §3, §4

[15] = test system: Echinochloa; assay: Pre-emergence test/greenhouse; type: in vivo; conditions: 504 h, 125 g of a.i./ha, after three weeks, read-out: degree of damage, Echinochloa
Protocol: as §1, §5, §3, §4

[16] = test system: Polygonum; assay: Post-emergence test/greenhouse; type: in vivo; conditions: 60 g of a.i./ha, after three weeks
Protocol: as §1, §2, §3, §4

[17] = test system: Matricaria; assay: Post-emergence test/greenhouse; type: in vivo; conditions: 60 g of a.i./ha, after three weeks
Protocol: as §1, §2, §3, §4

[18] = test system: Veronica; assay: Post-emergence test/greenhouse; type: in vivo; conditions: 60 g of a.i./ha, after three weeks
Protocol: as §1, §2, §3, §4

Row | SMILES | pest or weed control at 125 g/ha [1] [%] | pest or weed control at 125 g/ha [2] [%] | pest or weed control at 125 g/ha [3] [%] | pest or weed control at 125 g/ha [4] [%] | pest or weed control at 125 g/ha [5] [%] | activity against weeds [6] | pest or weed control at 125 g/ha [7] [%] | pest or weed control at 125 g/ha [8] [%] | degree of damage, Chenopodium ([9]; 125 g of a.i./ha) [%] | pest or weed control at 125 g/ha [10] [%] | activity against weeds [11] | pest or weed control at 125 g/ha [15] [%] | melting point [°C] | pest or weed control at 60 g/ha [3] [%] | pest or weed control at 60 g/ha [4] [%] | further results
1 | CCCn1ccs/c1=N\S(=O)(=O)NC(=O)n1nc(OCC2CC2)n(C)c1=O [Example 48] | 95 | 100 | 80 | 80 | 80 | very strong activity | – | – | – | – | – | – | – | – | – | –
2 | CCCn1ccs/c1=N\S(=O)(=O)NC(=O)n1nc(OCC)n(CC)c1=O [Example 49] | 100 | 100 | 95 | 70 | 95 | very strong activity | – | – | – | – | – | – | – | – | – | –
3 | C/C=C/c1nn(C(=O)NS(=O)(=O)/N=c2\sccn2CCC)c(=O)n1C1CC1 [Example 51] | – | – | – | – | – | – | 100 | 100 | 95 | 100 | very strong activity | – | – | – | – | –
4 | CCCc1nn(C(=O)NS(=O)(=O)/N=c2\sccn2CCC)c(=O)n1C1CC1 [Example 55] | 100 | 100 | 100 | 95 | 90 | very strong activity | – | – | – | – | – | – | – | – | – | –
5 | CCCn1ccs/c1=N\S(=O)(=O)NC(=O)n1nc(OCC)n(C2CC2)c1=O [Example 56] | – | – | – | – | – | – | – | – | – | – | – | – | – | – | – | pest or weed control at 250 g/ha ([7]; 250 g of a.i./ha): 100%; degree of damage, Setaria ([12]; 250 g of a.i./ha): 100%; pest or weed control at 250 g/ha ([8]; 250 g of a.i./ha): 100%; degree of damage, Chenopodium ([9]; 250 g of a.i./ha): 100%; pest or weed control at 250 g/ha ([10]; 250 g of a.i./ha): 100%
6 | COc1nn(C(=O)NS(=O)(=O)/N=c2\sccn2CCCF)c(=O)n1C [Example 124] | – | – | – | – | – | – | 70 | 100 | – | 95 | very strong activity | 90 | 189 | – | – | degree of damage, Sugar beet [13]: 0%; degree of damage, Maize [14]: 0%; degree of damage, Setaria ([12]; 125 g of a.i./ha): 95%
7 | CC(C)Oc1nn(C(=O)NS(=O)(=O)/N=c2/sccn2CCCF)c(=O)n1C [Example 125] | – | – | – | – | – | very strong activity | 70 | 100 | 95 | 100 | very strong activity | 90 | 170 | 90 | 90 | degree of damage, Polygonum [16]: 90%; pest or weed control at 60 g/ha ([5]; 60 g of a.i./ha): 90%
8 | CCOc1nn(C(=O)NS(=O)(=O)/N=c2\sccn2CCCF)c(=O)n1C1CC1 [Example 130] | – | – | – | – | – | very strong activity | 100 | 100 | 100 | 100 | very strong activity | 100 | 180 | 95 | 95 | pest or weed control at 60 g/ha [1]: 100%; degree of damage, Matricaria [17]: 100%; pest or weed control at 60 g/ha [2]: 100%; degree of damage, Veronica [18]: 100%
9 | CC(C)Oc1nn(C(=O)NS(=O)(=O)/N=c2\sccn2CCCF)c(=O)n1C1CC1 [Example 131] | – | – | – | – | – | very strong activity | 100 | 100 | 95 | 95 | very strong activity | 80 | 154 | 95 | 90 | pest or weed control at 60 g/ha [1]: 100%; degree of damage, Matricaria [17]: 95%; pest or weed control at 60 g/ha [2]: 95%; degree of damage, Veronica [18]: 90%
